Measured values published in PubChem BioAssay (NCI).
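Cells were grown in 96-well plates and exposed to each compound for 48 hours at five concentrations; endpoints were interpolated linearly between bracketing concentrations, or set to the highest concentration if not reached. GI50 = concentration required for 50% inhibition of growth. TGI denotes the concentration required for complete inhibition of growth.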

How the values were obtained:
Experiment in all cases: growth of human tumour cells (NCI), 48 h
[1] = system: CCRF-CEM leukemia
[2] = system: MDA-MB-435
[3] = system: SF-295 CNS
[4] = system: SK-MEL-2 melanoma
[5] = system: HCC-2998 colon
[6] = system: IGROV1 ovarian
[7] = system: COLO 205 colon
[8] = system: 786-0 renal
[9] = system: UACC-257 melanoma
[10] = system: NCI-H522 lung
[11] = system: SR leukemia
[12] = system: K-562 leukemia
[13] = system: SN12C renal
[14] = system: NCI-H226 lung
[15] = system: OVCAR-4 ovarian
[16] = system: SK-MEL-5 melanoma
[17] = system: NCI/ADR-RES ovarian
[18] = system: MOLT-4 leukemia
[19] = system: BT-549 breast
[20] = system: NCI-H460 lung
[21] = system: TK-10 renal
[22] = system: RXF 393 renal
[23] = system: EKVX NSCLC
[24] = system: SK-MEL-28 melanoma
[25] = system: HT29 colon
[26] = system: SNB-75 CNS
[27] = system: A498 renal
[28] = system: SF-539 CNS
[29] = system: HCT-15 colon
[30] = system: LOX IMVI melanoma
[31] = system: HL-60(TB) leukemia
[32] = system: MDA-MB-231 breast
[33] = system: OVCAR-8 ovarian
[34] = system: OVCAR-5 ovarian
[35] = system: M14 melanoma
[36] = system: ACHN renal
[37] = system: U251 CNS
[38] = system: PC-3 prostate
[39] = system: MALME-3M melanoma
[40] = system: RPMI-8226 leukemia
[41] = system: HCT-116 colon
[42] = system: UO-31 renal
[43] = system: NCI-H23 lung
[44] = system: A549 NSCLC
[45] = system: UACC-62 melanoma
[46] = system: KM12 colon
[47] = system: HS 578T breast
[48] = system: HOP-92 NSCLC
[49] = system: SW-620 colon
[50] = system: T-47D breast
[51] = system: DU-145 prostate
[52] = system: SNB-19 CNS
[53] = system: OVCAR-3 ovarian
[54] = system: MDA-N
[55] = system: MCF7 breast
[56] = system: SF-268 CNS
[57] = system: HOP-62 NSCLC
[58] = system: SK-OV-3 ovarian
[59] = system: CAKI-1 renal
[60] = system: KM20L2 colon
[61] = system: DMS 114 small cell lung
[62] = system: DLD-1 colon
[63] = system: M19-MEL melanoma
[64] = system: LXFL 529 NSCLC
[65] = system: XF 498 CNS
[66] = system: SNB-78 CNS
[67] = system: DMS 273 small cell lung

CC(=O)CCN1CC2CN=NC2(C#N)C1 (stereo not given)
TGI [1]: > 61 µM
TGI [2]: > 100 µM
TGI [3]: > 100 µM
TGI [4]: > 100 µM
TGI [5]: > 100 µM
TGI [6]: > 100 µM
TGI [7]: > 100 µM
TGI [8]: > 100 µM
TGI [9]: > 100 µM
TGI [10]: > 20.9 µM
TGI [11]: > 100 µM
TGI [12]: > 48.2 µM
TGI [13]: > 100 µM
TGI [14]: > 70 µM
TGI [15]: > 100 µM
TGI [16]: > 100 µM
TGI [17]: > 100 µM
TGI [18]: > 56.7 µM
TGI [19]: > 100 µM
TGI [20]: > 100 µM
TGI [21]: > 100 µM
TGI [22]: > 100 µM
TGI [23]: > 100 µM
TGI [24]: > 100 µM
TGI [25]: > 100 µM
TGI [26]: > 100 µM
TGI [27]: > 100 µM
GI50 [28]: > 100 µM
TGI [28]: > 100 µM
TGI [29]: > 100 µM
TGI [30]: > 100 µM
TGI [31]: > 62.6 µM
TGI [32]: > 100 µM
TGI [33]: > 100 µM
TGI [34]: > 100 µM
GI50 [35]: > 100 µM
TGI [35]: > 100 µM
TGI [36]: > 88.7 µM
TGI [37]: > 100 µM
TGI [38]: > 100 µM
TGI [39]: > 100 µM
GI50 [40]: > 100 µM
TGI [40]: > 100 µM
TGI [41]: > 100 µM
TGI [42]: > 100 µM
TGI [43]: > 100 µM
TGI [44]: > 100 µM
TGI [45]: > 100 µM
TGI [46]: > 100 µM
TGI [47]: > 95.7 µM
TGI [48]: > 76.3 µM
TGI [49]: > 55.6 µM
TGI [50]: > 100 µM
TGI [51]: > 100 µM
TGI [52]: > 100 µM
TGI [53]: > 100 µM
TGI [54]: > 100 µM
TGI [55]: > 100 µM
TGI [56]: > 100 µM
TGI [57]: > 100 µM
GI50 [58]: > 100 µM
TGI [58]: > 100 µM

O=C(NCCOC(=O)CCCCCCCCC(=O)OCCNC(=O)NC(=O)c1cn(Cc2ccccc2)c(=O)[nH]c1=O)NC(=O)c1cn(Cc2ccccc2)c(=O)[nH]c1=O
TGI [3]: > 100 µM
TGI [4]: > 100 µM
TGI [5]: > 100 µM
TGI [6]: > 100 µM
TGI [59]: > 100 µM
TGI [60]: > 100 µM
TGI [7]: > 100 µM
TGI [61]: > 100 µM
TGI [8]: > 100 µM
TGI [9]: > 100 µM
TGI [10]: > 100 µM
TGI [11]: > 100 µM
TGI [12]: > 100 µM
TGI [13]: > 100 µM
TGI [14]: > 100 µM
TGI [15]: > 100 µM
TGI [16]: > 100 µM
TGI [18]: > 100 µM
TGI [20]: > 100 µM
TGI [21]: > 100 µM
TGI [23]: > 100 µM
TGI [24]: > 100 µM
TGI [25]: > 100 µM
TGI [26]: > 100 µM
TGI [27]: > 100 µM
TGI [28]: > 100 µM
TGI [29]: > 100 µM
TGI [30]: > 100 µM
TGI [31]: > 100 µM
TGI [33]: > 100 µM
TGI [34]: > 100 µM
TGI [35]: > 100 µM
TGI [62]: > 100 µM
TGI [36]: > 100 µM
TGI [37]: > 100 µM
TGI [40]: > 100 µM
TGI [41]: > 100 µM
TGI [42]: > 100 µM
TGI [43]: > 100 µM
TGI [63]: > 100 µM
TGI [64]: > 100 µM
TGI [65]: > 100 µM
TGI [44]: > 100 µM
TGI [66]: > 100 µM
TGI [45]: > 100 µM
TGI [46]: > 100 µM
TGI [49]: > 100 µM
TGI [52]: > 100 µM
TGI [67]: > 100 µM
TGI [53]: > 100 µM
TGI [56]: > 100 µM
TGI [57]: > 100 µM
TGI [58]: > 100 µM
